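Tested at 5 concentrations; 48 h exposure; 96-well plates; endpoints linearly interpolated, else capped at highest concentration. At the GI50, growth is halved.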 Calls of active or inactive are those of the source. Rule as the data show it: active = GI50 up to about 1.1 µM and inactive = higher.
Tests used:
Assay in all cases: DTP human tumour cell line panel, 48 h
[1] = tested on: 786-0
[2] = tested on: A498
[3] = tested on: A549
[4] = tested on: ACHN
[5] = tested on: BT-549
[6] = tested on: CAKI-1
[7] = tested on: CCRF-CEM
[8] = tested on: COLO 205
[9] = tested on: DU-145
[10] = tested on: EKVX
[11] = tested on: HCT-116
[12] = tested on: HCT-15
[13] = tested on: HL-60
[14] = tested on: HOP-62
[15] = tested on: HOP-92
[16] = tested on: HT-29
[17] = tested on: Hs-578T
[18] = tested on: IGROV-1
[19] = tested on: K562
[20] = tested on: KM12
[21] = tested on: LOX IMVI
[22] = tested on: M14
[23] = tested on: MCF7
[24] = tested on: MDA-MB-231
[25] = tested on: MDA-MB-435
[26] = tested on: MDA-N
[27] = tested on: MOLT-4
[28] = tested on: Malme-3M
[29] = tested on: NCI-H226
[30] = tested on: NCI-H23
[31] = tested on: NCI-H460
[32] = tested on: NCI-H522
[33] = tested on: NCI/ADR-RES
[34] = tested on: OVCAR-3
[35] = tested on: OVCAR-4
[36] = tested on: OVCAR-5
[37] = tested on: OVCAR-8
[38] = tested on: PC-3
[39] = tested on: RPMI-8226
[40] = tested on: RXF 393
[41] = tested on: SF-268
[42] = tested on: SF-295
[43] = tested on: SF-539
[44] = tested on: SK-MEL-28
[45] = tested on: SK-MEL-2
[46] = tested on: SK-MEL-5
[47] = tested on: SK-OV-3
[48] = tested on: SN12C
[49] = tested on: SNB-19
[50] = tested on: SNB-75
[51] = tested on: SR
[52] = tested on: SW-620
[53] = tested on: T47D
[54] = tested on: TK-10
[55] = tested on: U-251
[56] = tested on: UACC-257
[57] = tested on: UACC-62
[58] = tested on: UO-31
[59] = tested on: HCC 2998

`NCc1nnn(Cc2ccccc2)c1N` was tested, and the GI50 [1] was > 100 µM (inactive), the GI50 [2] was > 100 µM (inactive) and the GI50 [3] was > 100 µM (inactive). For the same compound, the GI50 [4] was > 100 µM (inactive), the GI50 [5] was > 100 µM (inactive) and the GI50 [6] was > 100 µM (inactive). The GI50 [7] was > 100 µM (inactive), the GI50 [8] was > 100 µM (inactive) and the GI50 [9] was > 100 µM (inactive). The GI50 [10] was > 100 µM (inactive), the GI50 [11] was > 100 µM (inactive) and the GI50 [12] was > 100 µM. The GI50 [13] was > 100 µM (inactive), the GI50 [14] was > 100 µM (inactive) and the GI50 [15] was > 100 µM (inactive). For the same compound, the GI50 [16] was > 100 µM (inactive), the GI50 [17] was > 100 µM (inactive) and the GI50 [18] was > 100 µM (inactive). The GI50 [19] was > 100 µM (inactive), the GI50 [20] was > 100 µM (inactive) and the GI50 [21] was > 100 µM (inactive). For the same compound, the GI50 [22] was > 100 µM (inactive), the GI50 [23] was > 100 µM (inactive) and the GI50 [24] was > 100 µM (inactive). The GI50 [25] was > 100 µM (inactive), the GI50 [26] was > 100 µM (inactive) and the GI50 [27] was > 100 µM (inactive). The GI50 [28] was > 100 µM (inactive), the GI50 [29] was > 100 µM (inactive) and the GI50 [30] was > 100 µM (inactive). The GI50 [31] was > 100 µM (inactive), the GI50 [32] was > 100 µM (inactive) and the GI50 [33] was > 100 µM (inactive). For the same compound, the GI50 [34] was > 100 µM (inactive), the GI50 [35] was > 100 µM (inactive) and the GI50 [36] was > 100 µM (inactive). The GI50 [37] was > 100 µM (inactive), the GI50 [38] was > 100 µM (inactive) and the GI50 [39] was > 100 µM (inactive). The GI50 [40] was > 100 µM (inactive), the GI50 [41] was > 100 µM (inactive) and the GI50 [42] was > 100 µM (inactive). The GI50 [43] was > 100 µM (inactive), the GI50 [44] was > 100 µM (inactive) and the GI50 [45] was > 100 µM (inactive). For the same compound, the GI50 [46] was > 100 µM (inactive), the GI50 [47] was > 100 µM (inactive) and the GI50 [48] was > 100 µM (inactive). The GI50 [49] was > 100 µM (inactive), the GI50 [50] was > 100 µM (inactive) and the GI50 [51] was > 100 µM (inactive). The GI50 [52] was > 100 µM (inactive), the GI50 [53] was > 100 µM (inactive) and the GI50 [54] was > 100 µM (inactive). For the same compound, the GI50 [55] was > 100 µM (inactive), the GI50 [56] was > 100 µM (inactive) and the GI50 [57] was > 100 µM (inactive).

`O=C1Nc2ccccc2S/C1=C\c1cccc(C(F)(F)F)c1` was tested, and the GI50 [1] was > 100 µM (inactive), the GI50 [2] was > 100 µM (inactive) and the GI50 [3] was > 100 µM (inactive). The GI50 [4] was > 100 µM (inactive), the GI50 [5] was > 100 µM (inactive) and the GI50 [6] was 3.01 µM (inactive). For the same compound, the GI50 [7] was > 100 µM (inactive), the GI50 [8] was > 100 µM (inactive) and the GI50 [9] was > 100 µM (inactive). The GI50 [10] was > 100 µM (inactive), the GI50 [11] was > 100 µM (inactive) and the GI50 [12] was > 100 µM. The GI50 [13] was 5.01 µM (inactive), the GI50 [14] was > 100 µM (inactive) and the GI50 [15] was 60.1 µM (inactive). The GI50 [16] was > 100 µM (inactive), the GI50 [17] was > 100 µM (inactive) and the GI50 [18] was > 100 µM (inactive). The GI50 [19] was > 100 µM (inactive), the GI50 [20] was > 100 µM (inactive) and the GI50 [21] was > 100 µM (inactive). For the same compound, the GI50 [22] was > 100 µM (inactive), the GI50 [23] was 0.467 µM (active) and the GI50 [24] was 7.85 µM (inactive). For the same compound, the GI50 [25] was > 100 µM (inactive), the GI50 [26] was > 100 µM (inactive) and the GI50 [27] was > 100 µM (inactive). The GI50 [28] was > 100 µM (inactive), the GI50 [29] was > 100 µM (inactive) and the GI50 [31] was > 100 µM (inactive). For the same compound, the GI50 [32] was > 100 µM (inactive), the GI50 [33] was > 100 µM (inactive) and the GI50 [34] was > 100 µM (inactive). The GI50 [35] was > 100 µM (inactive), the GI50 [36] was > 100 µM (inactive) and the GI50 [37] was > 100 µM (inactive). For the same compound, the GI50 [38] was > 100 µM (inactive), the GI50 [39] was > 100 µM (inactive) and the GI50 [40] was > 100 µM (inactive). The GI50 [41] was > 100 µM (inactive), the GI50 [42] was > 100 µM (inactive) and the GI50 [43] was > 100 µM (inactive). For the same compound, the GI50 [44] was > 100 µM (inactive), the GI50 [45] was > 100 µM (inactive) and the GI50 [46] was > 100 µM (inactive). For the same compound, the GI50 [47] was > 100 µM (inactive), the GI50 [48] was > 100 µM (inactive) and the GI50 [49] was > 100 µM (inactive). The GI50 [50] was > 100 µM (inactive), the GI50 [51] was > 100 µM (inactive) and the GI50 [52] was > 100 µM (inactive). The GI50 [53] was 82.4 µM (inactive), the GI50 [54] was > 100 µM (inactive) and the GI50 [55] was > 100 µM (inactive). The GI50 [56] was > 100 µM (inactive), the GI50 [57] was > 100 µM (inactive) and the GI50 [58] was > 100 µM (inactive).

With `BrCc1ccc(CBr)c2c1-c1c(CBr)ccc3ccc(CBr)c-2c13` the GI50 [1] was > 100 µM (inactive), the GI50 [2] was > 100 µM (inactive) and the GI50 [3] was > 100 µM (inactive). For the same compound, the GI50 [4] was > 100 µM (inactive), the GI50 [5] was > 100 µM (inactive) and the GI50 [9] was > 100 µM (inactive). For the same compound, the GI50 [10] was > 100 µM (inactive), the GI50 [59] was > 100 µM (inactive) and the GI50 [11] was 98.6 µM (inactive). The GI50 [12] was > 100 µM, the GI50 [13] was 40.6 µM (inactive) and the GI50 [14] was > 100 µM (inactive). For the same compound, the GI50 [15] was > 100 µM (inactive), the GI50 [16] was > 100 µM (inactive) and the GI50 [17] was 53.2 µM (inactive). For the same compound, the GI50 [18] was > 100 µM (inactive), the GI50 [19] was 99.1 µM (inactive) and the GI50 [20] was > 100 µM (inactive). The GI50 [21] was > 100 µM (inactive), the GI50 [22] was > 100 µM (inactive) and the GI50 [23] was > 100 µM (inactive). The GI50 [24] was > 100 µM (inactive), the GI50 [25] was > 100 µM (inactive) and the GI50 [26] was > 100 µM (inactive). The GI50 [27] was 33.8 µM (inactive), the GI50 [28] was > 100 µM (inactive) and the GI50 [29] was > 100 µM (inactive). The GI50 [31] was > 100 µM (inactive), the GI50 [32] was > 100 µM (inactive) and the GI50 [33] was > 100 µM (inactive). The GI50 [34] was > 100 µM (inactive), the GI50 [35] was > 100 µM (inactive) and the GI50 [36] was > 100 µM (inactive). The GI50 [37] was > 100 µM (inactive), the GI50 [38] was 36.6 µM (inactive) and the GI50 [39] was 95.7 µM (inactive). For the same compound, the GI50 [41] was > 100 µM (inactive), the GI50 [42] was > 100 µM (inactive) and the GI50 [43] was 56.9 µM (inactive). For the same compound, the GI50 [44] was > 100 µM (inactive), the GI50 [45] was > 100 µM (inactive) and the GI50 [47] was > 100 µM (inactive). The GI50 [48] was > 100 µM (inactive), the GI50 [49] was > 100 µM (inactive) and the GI50 [50] was > 100 µM (inactive). For the same compound, the GI50 [51] was 46.2 µM (inactive), the GI50 [52] was > 100 µM (inactive) and the GI50 [53] was > 100 µM (inactive). For the same compound, the GI50 [54] was > 100 µM (inactive), the GI50 [55] was 49.8 µM (inactive) and the GI50 [56] was > 100 µM (inactive). The GI50 [57] was > 100 µM (inactive) and the GI50 [58] was > 100 µM (inactive).

From ChEMBL document CHEMBL1201862, “PubChem BioAssay data set” (2004)
